Patent US10774122B2, “ERG targeted therapy” (The Regents of the University of Michigan, priority 2017, dated 2020)
Where a SMILES comes first, the peptide text is derived from it. [ ]: non-standard residue; d: D form.

Experiments:
ERG:DNA-PKcs interaction = biological target: T1, ERG:DNA-PKcs interaction (Homo sapiens, UniProt P11308); settings: mouse, in vivo, 25 mg/kg
T1 sequence (P11308 33-479 limits assumed): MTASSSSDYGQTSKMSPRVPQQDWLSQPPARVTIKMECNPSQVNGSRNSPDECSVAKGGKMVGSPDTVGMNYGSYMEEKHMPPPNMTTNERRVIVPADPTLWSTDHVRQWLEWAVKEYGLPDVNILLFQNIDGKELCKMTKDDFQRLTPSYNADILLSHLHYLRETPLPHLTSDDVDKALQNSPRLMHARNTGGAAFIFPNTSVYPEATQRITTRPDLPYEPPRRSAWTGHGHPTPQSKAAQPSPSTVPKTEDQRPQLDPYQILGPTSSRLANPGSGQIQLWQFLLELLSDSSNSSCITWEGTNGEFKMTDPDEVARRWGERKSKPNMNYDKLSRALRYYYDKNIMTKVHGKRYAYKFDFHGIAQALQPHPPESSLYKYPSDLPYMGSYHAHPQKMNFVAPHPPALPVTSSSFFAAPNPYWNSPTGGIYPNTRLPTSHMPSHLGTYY
Procedure: Cell pellets or tumors treated with or without the peptidomimetics were lysed in cell lysis buffer (20 mM MOPS, pH 7.0, 2 mM EGTA, 5 mM EDTA, 30 mM sodium fluoride, 60 mM β-glycerophosphate, 20 mM sodium pyrophosphate, 1 mM sodium orthovanadate, 1% Triton X-100, 1 mM DTT, protease inhibitor cocktail (Roche)). Cell lysates (0.5-1.0 mg) were pre-cleaned with protein A/G agarose beads (Santa Cruz) by incubation for 1 hour with shaking at 4° C. followed by centrifugation at 2000 rpm for 3 minute. Lysates were then incubated with 2 μg ERG antibody (Santa Cruz, C-17) at 4° C. for 4 hours with shaking prior to addition of 20 μl protein A/G agarose beads and incubated at 4° C. overnight. […] Samples were then analyzed by SDS-PAGE and Western blot analysis as described above.
VCaP xenografted mice were injected with a single dose of 25 mg/kg biotinylated RI-EIP1 and serum and tumors were collected at varying time intervals as indicated.

ERG = biological target: T2, ERG (Homo sapiens, UniProt P11308)
T2 sequence (P11308 1-479): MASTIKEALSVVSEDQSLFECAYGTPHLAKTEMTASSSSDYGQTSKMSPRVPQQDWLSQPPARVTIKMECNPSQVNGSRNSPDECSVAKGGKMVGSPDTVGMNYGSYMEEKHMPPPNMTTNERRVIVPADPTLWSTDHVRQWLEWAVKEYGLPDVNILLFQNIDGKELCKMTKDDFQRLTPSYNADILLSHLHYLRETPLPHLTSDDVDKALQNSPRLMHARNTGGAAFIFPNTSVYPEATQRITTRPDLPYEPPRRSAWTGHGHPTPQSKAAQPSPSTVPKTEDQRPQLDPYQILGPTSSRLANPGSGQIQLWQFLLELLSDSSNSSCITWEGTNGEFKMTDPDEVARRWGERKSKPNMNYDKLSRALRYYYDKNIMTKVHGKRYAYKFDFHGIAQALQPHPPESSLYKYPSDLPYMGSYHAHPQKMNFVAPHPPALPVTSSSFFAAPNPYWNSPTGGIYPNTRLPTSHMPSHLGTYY
Procedure: This technique was applied to evaluate the target binding specificity of RI-EIPs. […] All CETSAs were performed after 3 hours treatment with the peptidomimetics at the indicated doses and temperatures.

[1] = test system: PC3 (ERG fusion-negative) xenografts; test: PC3 xenograft mouse model, tumor growth; settings: 25 mg/kg, compared to mutant peptidomimetic
Procedure: Athymic Nude-Foxnlnu male mice were procured from Harlan Laboratories, Inc (Indianapolis, Ind.). All procedures involving mice were approved by the University Committee on Use and Care of Animals (UCUCA) at the University of Michigan and conformed to their relevant regulatory standards. […] Statistical significance for Kaplan-Meier analysis was determined by the log-rank (Mantel-Cox) test.
Athymic Nude-Foxnlnu male mice were procured from Harlan Laboratories, Inc. (Indianapolis, Ind.). VCaP (2×10^6 cells) or PC3 (5×10^5 cells) were resuspended in 100 μl of saline with 50% Matrigel (BD Biosciences, Becton Drive, NJ) and implanted subcutaneously into the flank regions on both sides of the mice. Mice were anesthetized using a cocktail of xylazine (80-120 mg/kg, IP) and ketamine (10 mg/kg, IP) for chemical restraint before tumor cells implantation. For short term assays, all tumors were staged for three weeks before starting peptidomimetic treatment. […]
Tumor growth was recorded every three days using digital calipers and tumor volumes were calculated using the formula (π/6) (L×W2), where L=length of tumor and W=width. Body weight was monitored weekly over the course of the study. […] Statistical significance for Kaplan-Meier analysis was determined by the log-rank (Mantel-Cox) test. […]

[2] = test system: ERG and DNA-PKcs enrichment at ERG-regulated genomic loci; assay type: cell-based
Procedure: VCaP cells were grown in complete medium and treated with peptidomimetics 12 hours prior to harvesting cells. ChIP assays were carried out as previously described (Brenner et al., 2011; supra; Yu et al., 2010; supra) using antibodies against ERG (Santa Cruz, # sc-354), DNA-PKcs (BD Biosciences, #610805), rabbit IgG (Santa Cruz, # sc-2027) or mouse IgG (Santa Cruz, # sc-2025). Briefly, chromatin collected from formaldehyde crosslinked and lysed cells was sonicated to an average length of 600 bp. Supernatants containing chromatin fragments were pre-cleared using protein A/G beads (Upstate) and incubated with 3-5 μg of ERG antibody or IgG overnight prior to the addition of […] of protein A/G beads for 1 hour. Antibody-bead precipitates were then washed six times and antibody/protein/DNA complexes were eluted with 150 μl IP elution buffer (50 mM […], 1% SDS). To reverse the crosslinks, the complexes were incubated in elution buffer containing 10 μg RNase A and 0.3 M NaCl at 67° C. for 4-5 hours. DNA/protein complexes were then precipitated with ethanol, air-dried, and dissolved in 100 μl of TE. Protein was then digested by incubation with proteinase K at 45° C. for 1 hour and DNA was purified using a QIAGEN PCR column according to the manufacturer's protocol. QPCR was performed using appropriate primers as previously described (Brenner et al., 2011; supra).

## CC(C)C[C@@H](NC(=O)[C@H]1CCCN1C(=O)[C@H]1CCCN1C(=O)[C@@H](Cc1ccc(O)cc1)NC(=O)[C@@H](CC(C)C)NC(=O)[C@@H](Cc1ccccc1)NC(=O)[C@H](NC(=O)CNC(=O)CNC(=O)[C@@H](CCCNC(=N)N)NC(=O)[C@@H](CCCCN)NC(=O)[C@@H](CCCCN)NC(=O)[C@@H](CCCNC(=N)N)NC(=O)[C@@H](CCCNC(=N)N)NC(=O)[C@@H](CCC(N)=O)NC(=O)[C@@H](CCCNC(=N)N)NC(=O)[C@@H](CCCNC(=N)N)NC(=O)[C@@H](CCCNC(=N)N)NC(=O)CN)[C@H](C)O)C(=O)O [RI-EIP1] (H-G[dR][dR][dR][dQ][dR][dR][dK][dK][dR]GG[dT][dF][dL][dY][dP][dP][dL]-OH)
ERG:DNA-PKcs interaction
  ERG:DNA-PKcs interaction in VCaP xenograft tumors: blocked
ERG
  soluble ERG protein in VCaP versus HUVEC cells (CETSA): clear difference
[1]
  tumor size of PC3 xenografts: no difference in tumor size
[2]
  ERG and DNA-PKcs enrichment at ERG-regulated genomic loci: inhibits
